What all share (type): nucleic-acid assay
The subject of assay [1] is Nucleic Acid. Put plainly: Binding affinity to human telomeric G-quadruplex DNA at 200 uM after 1 hr by ESI-TOF-MS analysis.
Assay [2] deals with Nucleic Acid. The assay can be described thus: Binding affinity to human telomeric G-quadruplex DNA assessed as bathochromic shift at 10 uM at pH 7.6 by UV-Vis spectrophotometric analysis.
Assay [3] concerns Nucleic Acid. Put plainly: Binding affinity to human telomeric G-quadruplex DNA assessed as hypochromic effect at 10 uM at pH 7.6 by UV-Vis spectrophotometric analysis.
Assay [4] relates to Nucleic Acid. The assay can be described thus: Binding affinity to human telomeric DNA AGGGTTAGGGT at 200 uM after 1 hr by ESI-TOF-MS analysis.

Structures are written as SMILES. Active and inactive are the calls of the source. The rule behind the calls is not given here.

In the case of `COc1ccc2cc3[n+](cc2c1OC)CCc1cc2c(cc1-3)OCO2`, the Activity in the assay with Nucleic Acid [1] was determined as 58.9%.
For the compound `CC(C)=CC[C@@H](O)C1=CC(=O)c2c(O)ccc(O)c2C1=O`, the Activity with Nucleic Acid [1] turned out to be 0%.
Consider `CC(=O)N[C@H]1[C@H](O[C@H](CC=C(C)C)C2=CC(=O)c3c(O)ccc(O)c3C2=O)O[C@H](CO)[C@@H](O)[C@@H]1O`, for which the Activity came to 47% with Nucleic Acid [1], 32.8% in the assay on Nucleic Acid [3] and 16% with Nucleic Acid [4]. In the assay with Nucleic Acid [2], the outcome was Active.
`CC(C)=CC[C@H](O)C1=CC(=O)c2c(O)ccc(O)c2C1=O`: the Activity with Nucleic Acid [1] is 0%.
Same read-out and setting: then `CC(=O)N[C@H]1[C@H](O[C@@H](CC=C(C)C)C2=CC(=O)c3c(O)ccc(O)c3C2=O)O[C@H](CO)[C@@H](O)[C@@H]1O`, with 39.3%.

The values are drawn from ChEMBL document CHEMBL1949616, “Synthesis and human telomeric G-quadruplex DNA-binding activity of glucosaminosides of shikonin/alkannin” (Bioorg Med Chem Lett, 2012).
